Measurements published in patent US20230000876A1, “TREATING CANCERS WITH A CYCLIN-DEPENDENT KINASE INHIBITOR” (Nuvation Bio Inc., priority 2021, published 2023).

Experiments:
A375 = test: Cell viability assay, melanoma cell line A375; assay type: cell-based
Experimental: 4.4.4 Compound Plate (10×) Preparation and Compound Treatment • 10× concentrate compound plate preparation: Add 198 μL of assay medium into each well of the V-bottom plate; then transfer 2 μL of the stock compound solution of each concentration from the stock plate. Add 2 μL of DMSO into the Blank and Control wells. Pipette up and down to mix well. This V-plate is designated as the 10× concentrate compound plate. • For day 0 plate, add 15 μL of the DMSO-medium into the Control wells. The final DMSO concentration was 0.1%. Then directly proceed to cell viability assay. • For assay plate, add 15 μL of the compound-medium of each well from the 10× concentrate compound plate into the cells in 96-well assay plate according to the plate map. Add 15 μL of the DMSO-medium into the Blank and Control wells. The final DMSO concentration was 0.1%. • Return the assay plate into incubator and incubate for 6 days.
The procedures were performed according to the Promega CellTiter-Glo Luminescent Cell Viability Assay Kit manual (Promega-G7573). • The CellTiter-Glo buffer was thawed and equilibrated to room temperature prior to use. • CellTiter-Glo Substrate was equilibrated to room temperature prior to use. • The entire liquid volume of CellTiter-Glo Buffer was transferred into the amber bottle containing CellTiter-Glo Substrate to reconstitute the lyophilized enzyme/substrate mixture. […] Plates were covered with aluminum foil to protect from light. • The contents were mixed for 2 minutes on an orbital shaker to induce cell lysis. • The plate was incubated at room temperature for 20 minutes to stabilize luminescent signal. • Record luminescence on the 2104 EnVision plate reader.
Inhibition rate (IR) of the tested compounds was determined by the following formula: IR (%)=(1−(RLU compound−RLU day0)/(RLU control−RLU day0))*100%. The inhibitions of different dose of compound were calculated in Excel file, and then were used to plot inhibition curves and evaluate related parameters, such as Min (%), Max (%) and GI50. […]

xBT474 breast tumor = xBT474 breast tumor model (ER-negative/HER2-positive); conditions: Group 5: Compound (I) 30 mg/kg PO QD*28 days

CC(C)N1CCOc2c(F)cc(-c3nc(Nc4ccc(C5CCN(C)CC5)cn4)ncc3F)cc21 [Compound (I), 5-fluoro-4-(8-fluoro-4-isopropyl-3,4-dihydro-2H-benzo[b][1,4]oxazin-6-yl)-N-(5-(1-methylpiperidin-4-yl)pyridin-2-yl)pyrimidin-2-amine]
GI50 (A375; Homo sapiens, A-375, read-out: Absolute GI50): 156 nM | Max (%) (A375; inhibition rate): 101.21% | Min (%) (A375; inhibition rate): −0.12% | Tumor volume (mean ± SEM) (xBT474 breast tumor; Day 0): 146 ± 8 mm^3 | Tumor volume (mean ± SEM) (xBT474 breast tumor; Day 4): 240 ± 20 mm^3 | Tumor volume (mean ± SEM) (xBT474 breast tumor; Day 7): 250 ± 22 mm^3 | Tumor volume (mean ± SEM) (xBT474 breast tumor; Day 11): 347 ± 45 mm^3 | Tumor volume (mean ± SEM) (xBT474 breast tumor; Day 14): 408 ± 42 mm^3 | Tumor volume (mean ± SEM) (xBT474 breast tumor; Day 18): 490 ± 59 mm^3 | Tumor volume (mean ± SEM) (xBT474 breast tumor; Day 21): 549 ± 73 mm^3 | Tumor volume (mean ± SEM) (xBT474 breast tumor; Day 25): 576 ± 79 mm^3 | Tumor volume (mean ± SEM) (xBT474 breast tumor; Day 28): 617 ± 84 mm^3 | Tumor volume (mean ± SEM) (xBT474 breast tumor; Day 32): 658 ± 99 mm^3 | Tumor volume (mean ± SEM) (xBT474 breast tumor; Day 35): 721 ± 119 mm^3 | Tumor volume (mean ± SEM) (xBT474 breast tumor; Day 39): 685 ± 107 mm^3 | Tumor volume (mean ± SEM) (xBT474 breast tumor; Day 42): 694 ± 120 mm^3 | Tumor volume (mean ± SEM) (xBT474 breast tumor; Day 46): 707 ± 116 mm^3
